The experiment addresses KRasG12C (M1-K169, biotinylated on the N-terminus) (Homo sapiens (Human), UniProt P01116, G12C). As to the kind of experiment: Covalent competition assay (scintillation proximity assay, competition with radiolabeled covalent probe Compound B). Format: binding. As to conditions: in vitro KRASG12C activity; 10 nM KRasG12C:GDP, 25 nM radio-ligand and 475 nM unlabelled ligand, incubated 2 hours; read-out: Covalent Competition Assay IC50. The procedure, abridged: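 Biotinylated KRasG12C (M1-K169):GDP incubated 2 h with agitation with serially diluted compounds premixed with a fixed concentration of radiolabeled covalent probe; scintillation proximity read-out of competition for covalent modification. Buffer 20 mM Tris-HCl pH 7.5, 150 mM NaCl, 0.1 mM MgCl2, 0.01% Tween-20. IC50 from 4-parameter fit.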
A general note: Scintillation proximity formats need no separation of bound from free tracer.
Take `C=CC(=O)N1CC2(CC(n3nc(-c4ccncc4C)c(-c4c(Cl)c(C)cc5[nH]ncc45)c3C)C2)C1` (single isomer, unassigned) [Example 49a, 1-(6-(4-(5-chloro-6-methyl-1H-indazol-4-yl)-5-methyl-3-(3-methylpyridin-4-yl)-1H-pyrazol-1-yl)-2-azaspiro[3.3]heptan-2-yl)prop-2-en-1-one]: the 50% inhibitory concentration (IC50) amounted to 227 nM.

On to `C=CC(=O)N1CC2(CC(n3nc(-c4ccncc4C)c(-c4c(Cl)c(C)cc5[nH]ncc45)c3C)C2)C1` (single isomer, unassigned) [Example 49b, 1-(6-(4-(5-chloro-6-methyl-1H-indazol-4-yl)-5-methyl-3-(3-methylpyridin-4-yl)-1H-pyrazol-1-yl)-2-azaspiro[3.3]heptan-2-yl)prop-2-en-1-one], for which the 50% inhibitory concentration (IC50) is 5380 nM.

On to `C=CC(=O)N1CC2(CC(n3nc(-c4ccc(N5CCS(=O)(=O)CC5)cc4)c(-c4c(Cl)c(C)cc5[nH]ncc45)c3C)C2)C1` (single isomer, unassigned) [Example 50a, 1-(6-(4-(5-chloro-6-methyl-1H-indazol-4-yl)-3-(4-(1,1-dioxidothiomorpholino)phenyl)-5-methyl-1H-pyrazol-1-yl)-2-azaspiro[3.3]heptan-2-yl)prop-2-en-1-one], for which the half-inhibitory concentration (IC50) was 35 nM.

Turning to `C=CC(=O)N1CC2(CC(n3nc(-c4ccc(N5CCS(=O)(=O)CC5)cc4)c(-c4c(Cl)c(C)cc5[nH]ncc45)c3C)C2)C1` (single isomer, unassigned) [Example 50b, 1-(6-(4-(5-chloro-6-methyl-1H-indazol-4-yl)-3-(4-(1,1-dioxidothiomorpholino)phenyl)-5-methyl-1H-pyrazol-1-yl)-2-azaspiro[3.3]heptan-2-yl)prop-2-en-1-one], the IC50 amounted to 4240 nM.

As to `C=CC(=O)N1CC2(CC(n3nc(-c4cscn4)c(-c4c(Cl)c(C)cc5[nH]ncc45)c3C)C2)C1` (single isomer, unassigned) [Example 51a, 1-(6-(4-(5-chloro-6-methyl-1H-indazol-4-yl)-5-methyl-3-(thiazol-4-yl)-1H-pyrazol-1-yl)-2-azaspiro[3.3]heptan-2-yl)prop-2-en-1-one], the half-inhibitory concentration (IC50) amounted to 465 nM.

Regarding `C=CC(=O)N1CC2(CC(n3nc(-c4cscn4)c(-c4c(Cl)c(C)cc5[nH]ncc45)c3C)C2)C1` (single isomer, unassigned) [Example 51b, 1-(6-(4-(5-chloro-6-methyl-1H-indazol-4-yl)-5-methyl-3-(thiazol-4-yl)-1H-pyrazol-1-yl)-2-azaspiro[3.3]heptan-2-yl)prop-2-en-1-one], the half-inhibitory concentration (IC50) was determined as 36100 nM.

Consider `C=CC(=O)N1CC2(CC(n3nc(-c4ccc5c(c4)C(=O)OC5)c(-c4c(Cl)c(C)cc5[nH]ncc45)c3C)C2)C1` (single isomer, unassigned) [Example 54a], for which the half-maximal inhibitory concentration (IC50) was found to be 360 nM.

As to `C=CC(=O)N1CC2(CC(n3nc(-c4ccc5c(c4)C(=O)OC5)c(-c4c(Cl)c(C)cc5[nH]ncc45)c3C)C2)C1` (single isomer, unassigned) [Example 54b], the IC50 was > 50000 nM.

With `C=CC(=O)N1CC2(CC(n3nc(-c4ccc(O)cc4)c(-c4c(Cl)c(C)cc5[nH]ncc45)c3C)C2)C1` (single isomer, unassigned) [Example 57a], the IC50 came out at 33 nM.

In the case of `C=CC(=O)N1CC2(CC(n3nc(-c4ccc(O)cc4)c(-c4c(Cl)c(C)cc5[nH]ncc45)c3C)C2)C1` (single isomer, unassigned) [Example 57b], the IC50 is 3200 nM.

On to `C=CC(=O)N1CC2(CC(n3nc(-c4ccc(O)cc4F)c(-c4c(Cl)c(C)cc5[nH]ncc45)c3C)C2)C1` (single isomer, unassigned) [Example 58a], for which the IC50 amounted to 64 nM.

Take `C=CC(=O)N1CC2(CC(n3nc(-c4ccc(O)cc4F)c(-c4c(Cl)c(C)cc5[nH]ncc45)c3C)C2)C1` (single isomer, unassigned) [Example 58b]: the half-inhibitory concentration (IC50) is > 5000 nM.

For the compound `C=CC(=O)N1CC2(CC(n3nc(-c4cc5ccncc5[nH]4)c(-c4c(Cl)c(C)cc5[nH]ncc45)c3C)C2)C1` (single isomer, unassigned) [Example 59a, 1-(6-(4-(5-chloro-6-methyl-1H-indazol-4-yl)-5-methyl-3-(1H-pyrrolo[2,3-c]pyridin-2-yl)-1H-pyrazol-1-yl)-2-azaspiro[3.3]heptan-2-yl)prop-2-en-1-one], the IC50 was 173 nM.

With `C=CC(=O)N1CC2(CC(n3nc(-c4cc5ccncc5[nH]4)c(-c4c(Cl)c(C)cc5[nH]ncc45)c3C)C2)C1` (single isomer, unassigned) [Example 59b, 1-(6-(4-(5-chloro-6-methyl-1H-indazol-4-yl)-5-methyl-3-(1H-pyrrolo[2,3-c]pyridin-2-yl)-1H-pyrazol-1-yl)-2-azaspiro[3.3]heptan-2-yl)prop-2-en-1-one], the IC50 is > 50000 nM.

In the case of `C=CC(=O)N1CC2(CC(n3nc(-c4ccc(OCCOC)cc4F)c(-c4c(Cl)c(C)cc5[nH]ncc45)c3C)C2)C1` (single isomer, unassigned) [Example 60a, 1-(6-{(4M)-4-(5-Chloro-6-methyl-1H-indazol-4-yl)-3-[2-fluoro-4-(2-methoxyethoxy)phenyl]-5-methyl-1H-pryazol-1-yl}-2-azaspiro[3.3]heptan-2-yl)prop2-en-1-one], the IC50 stood at 51 nM.

Turning to `C=CC(=O)N1CC2(CC(n3nc(-c4ccc(OCCOC)cc4F)c(-c4c(Cl)c(C)cc5[nH]ncc45)c3C)C2)C1` (single isomer, unassigned) [Example 60b, 1-(6-(4-(5-chloro-6-methyl-1H-indazol-4-yl)-3-(2-fluoro-4-(2-methoxyethoxy)phenyl)-5-methyl-1H-pyrazol-1-yl)-2-azaspiro[3.3]heptan-2-yl)prop-2-en-1-one], the IC50 was > 5000 nM.

As for `C=CC(=O)N1CC2(CC(n3nc(-c4ccc(NCCOC)cc4F)c(-c4c(Cl)c(C)cc5[nH]ncc45)c3C)C2)C1` (single isomer, unassigned) [Example 61a, 1-(6-(4-(5-chloro-6-methyl-1H-indazol-4-yl)-3-(2-fluoro-4-((2-methoxyethyl)amino)phenyl)-5-methyl-1H-pyrazol-1-yl)-2-azaspiro[3.3]heptan-2-yl)prop-2-en-1-one], the concentration for half-maximal inhibition (IC50) came to 27 nM.

As for `C=CC(=O)N1CC2(CC(n3nc(-c4ccc(NCCOC)cc4F)c(-c4c(Cl)c(C)cc5[nH]ncc45)c3C)C2)C1` (single isomer, unassigned) [Example 61b, 1-(6-(4-(5-chloro-6-methyl-1H-indazol-4-yl)-3-(2-fluoro-4-((2-methoxyethyl)amino)phenyl)-5-methyl-1H-pyrazol-1-yl)-2-azaspiro[3.3]heptan-2-yl)prop-2-en-1-one], the IC50 is > 5000 nM.

On to `C=CC(=O)N1CC2(CC(n3nc(-c4ccc(C(=O)NCCOC)cc4)c(-c4c(Cl)c(C)cc5[nH]ncc45)c3C)C2)C1` (single isomer, unassigned) [Example 62a, 4-(1-(2-acryloyl-2-azaspiro[3.3]heptan-6-yl)-4-(5-chloro-6-methyl-1H-indazol-4-yl)-5-methyl-1H-pyrazol-3-yl)-N-(2-methoxyethyl)benzamide], for which the IC50 is 45 nM.

Turning to `C=CC(=O)N1CC2(CC(n3nc(-c4ccc(C(=O)NCCOC)cc4)c(-c4c(Cl)c(C)cc5[nH]ncc45)c3C)C2)C1` (single isomer, unassigned) [Example 62b, 4-(1-(2-acryloyl-2-azaspiro[3.3]heptan-6-yl)-4-(5-chloro-6-methyl-1H-indazol-4-yl)-5-methyl-1H-pyrazol-3-yl)-N-(2-methoxyethyl)benzamide], the IC50 is 19300 nM.

Turning to `C=CC(=O)N1CC2(CC(n3nc(-c4ccc(C(=O)NCCOC)c(F)c4)c(-c4c(Cl)c(C)cc5[nH]ncc45)c3C)C2)C1` (single isomer, unassigned) [Example 63a], the half-inhibitory concentration (IC50) came to 88 nM.

With `C=CC(=O)N1CC2(CC(n3nc(-c4ccc(C(=O)NCCOC)c(F)c4)c(-c4c(Cl)c(C)cc5[nH]ncc45)c3C)C2)C1` (single isomer, unassigned) [Example 63b], the concentration for half-maximal inhibition (IC50) is 33800 nM.

In the case of `C=CC(=O)N1CC2(CC(n3nc(-c4ccc(C(=O)NCCOC)nc4)c(-c4c(Cl)c(C)cc5[nH]ncc45)c3C)C2)C1` (single isomer, unassigned) [Example 64a], the IC50 stood at 55 nM.

Regarding `C=CC(=O)N1CC2(CC(n3nc(-c4ccc(C(=O)NCCOC)nc4)c(-c4c(Cl)c(C)cc5[nH]ncc45)c3C)C2)C1` (single isomer, unassigned) [Example 64b], the IC50 is 24500 nM.

Consider `C=CC(=O)N1CC2(CC(n3nc(-c4ccc(C(=O)NCCN(C)C)cc4)c(-c4c(Cl)c(C)cc5[nH]ncc45)c3C)C2)C1` (single isomer, unassigned) [Example 65a], for which the 50% inhibitory concentration (IC50) came to 46 nM.

For the compound `C=CC(=O)N1CC2(CC(n3nc(-c4ccc(C(=O)NCCN(C)C)cc4)c(-c4c(Cl)c(C)cc5[nH]ncc45)c3C)C2)C1` (single isomer, unassigned) [Example 65b], the IC50 amounted to 17400 nM.

In the case of `C=CC(=O)N1CC2(CC(n3nc(-c4ccc(C(=O)N(C)CCOC)cc4)c(-c4c(Cl)c(C)cc5[nH]ncc45)c3C)C2)C1` (single isomer, unassigned) [Example 66a, 4-(1-(2-acryloyl-2-azaspiro[3.3]heptan-6-yl)-4-(5-chloro-6-methyl-1H-indazol-4-yl)-5-methyl-1H-pyrazol-3-yl)-N-(2-methoxyethyl)-N-methylbenzamide], the IC50 is 240 nM.

Turning to `C=CC(=O)N1CC2(CC(n3nc(-c4ccc(C(=O)N(C)CCOC)cc4)c(-c4c(Cl)c(C)cc5[nH]ncc45)c3C)C2)C1` (single isomer, unassigned) [Example 66b, 4-(1-(2-acryloyl-2-azaspiro[3.3]heptan-6-yl)-4-(5-chloro-6-methyl-1H-indazol-4-yl)-5-methyl-1H-pyrazol-3-yl)-N-(2-methoxyethyl)-N-methylbenzamide], the concentration for half-maximal inhibition (IC50) was found to be 4300 nM.

On to `C=CC(=O)N1CC2(CC(n3nc(-c4ccc(C(=O)N(C)CC(C)(C)O)cc4)c(-c4c(Cl)c(C)cc5[nH]ncc45)c3C)C2)C1` (single isomer, unassigned) [Example 67a], for which the IC50 is 202 nM.

For orientation: IC50 means the midpoint of a concentration-inhibition curve.

(Values after patent US11702409B2, “Pyrazolyl derivatives useful as anti-cancer agents” (NOVARTIS AG, priority 2019, dated 2023).)
